Columns and labels:
K. pneumoniae = test: Rescue concentration of substituted phenyl azaindole derivatives; type: cell-based; conditions: for Rescue concentration, K. pneumoniae Ciprofloxacin (1 μg/mL): Ciprofloxacin fixed at 1 μg/mL; for Rescue concentration, K. pneumoniae Imipenem (1 μg/mL): Imipenem fixed at 1 μg/mL
Summary of the method: (§1)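 Modified checkerboard MIC: fixed CLSI susceptible-breakpoint antibiotic concentration plus twofold dilution series of SP-azaBIM, 10^6 CFU/ml in ca-MHB, 35° C, 24 h aerobic. Only antibiotics to which the strain was resistant were tested. Rescue concentration = lowest compound concentration giving 99.99% growth reduction (visual) at breakpoint.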

[1] = system: Vancomycin resistant Enterococcus faecalis; test: Broth microdilution minimum inhibitory concentration; type: cell-based; conditions: compound alone
Summary of the method: (§2)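 Broth microdilution followed CLSI M07-A10, using 11 two-fold dilutions (top 1028 μg/mL, 2% DMSO final) and an inoculum of 2×10^5 to 8×10^5 CFU/mL. Wells were scored visually. MIC is the lowest concentration with no growth, tested in duplicate.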

[2] = system: Carbapenem resistant Acinetobacter baumannii; test: as above; type: cell-based; conditions: compound alone
Summary of the method: as §2

[3] = system: Multidrug resistant Pseudomonas aeruginosa; test: as above; type: cell-based; conditions: compound alone
Summary of the method: as §2

[4] = system: Methicillin resistant Staphylococcus aureus; test: as above; type: cell-based; conditions: compound alone
Summary of the method: as §2

[5] = system: Carbapenem resistant Klebsiella pneumoniae; test: as above; type: cell-based; conditions: compound alone
Summary of the method: as §2

[6] = system: Enterobacter cloacae ATCC BAA-1143; test: Rescue concentration, modified checkerboard MIC adjuvant assay; type: cell-based; conditions: E. cloacae ATCC BAA-1143; for Rescue concentration, Amp (8): Amp at susceptible breakpoint 8 μg mL^−1; for Rescue concentration, Azi (16): Azi at susceptible breakpoint 16 μg mL^−1; for Rescue concentration, Ceph (8): Ceph at susceptible breakpoint 8 μg mL^−1; for Rescue concentration, Chl (8): Chl at susceptible breakpoint 8 μg mL^−1; for Rescue concentration, Col (8): Col at susceptible breakpoint 8 μg mL^−1; for Rescue concentration, Dox (4): Dox at susceptible breakpoint 4 μg mL^−1; for Rescue concentration, Gen (4): Gen at susceptible breakpoint 4 μg mL^−1; for Rescue concentration, Imi (1): Imi at susceptible breakpoint 1 μg mL^−1; for Rescue concentration, Tet (4): Tet at susceptible breakpoint 4 μg mL^−1
Summary of the method: (§3)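 Visual growth read after 24 h at 35° C. under aerobic conditions defines rescue concentration as the lowest compound concentration restoring antibiotic susceptibility at breakpoint (99.99% growth reduction). Antibiotic held fixed at CLSI susceptible breakpoint; compound serially diluted twofold; ca-MHB, 10^6 CFU/ml.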

[7] = system: Staphylococcus aureus ATCC BAA-2312; test: as above; type: cell-based; conditions: S. aureus ATCC BAA-2312; for Rescue concentration, Azi (2): Azi at susceptible breakpoint 2 μg mL^−1; for Rescue concentration, Gen (4): Gen at susceptible breakpoint 4 μg mL^−1; for Rescue concentration, Pen (0.12): Pen at susceptible breakpoint 0.12 μg mL^−1; for Rescue concentration, Tri (8): Tri at susceptible breakpoint 8 μg mL^−1; for Rescue concentration, Van (2): Van at susceptible breakpoint 2 μg mL^−1
Summary of the method: as §3

MRSA = test: Rescue concentration of substituted phenyl azaindole derivatives; type: cell-based, Staphylococcus aureus; conditions: Amoxicillin fixed at 2 μg/mL
Summary of the method: as §1

Brc1ccc(C(c2c[nH]c3cnccc23)c2c[nH]c3cnccc23)cc1 [SP-6azaBIM 125, 3,3′-((4-bromophenyl)methylene)bis(1H-pyrrolo[2,3-c]pyridine)]
32 µg/mL: Rescue concentration, Amp (8) [6]
< 1020 µg/mL: MIC [1] | MIC [2] | MIC [3] | MIC [4] | MIC [5]
>128 µg/mL: Rescue concentration, Azi (16) [6] | Rescue concentration, Ceph (8) [6] | Rescue concentration, Chl (8) [6] | Rescue concentration, Col (8) [6] | Rescue concentration, Dox (4) [6] | Rescue concentration, Gen (4) [6] | Rescue concentration, Imi (1) [6] | Rescue concentration, Tet (4) [6] | Rescue concentration, Azi (2) [7] | Rescue concentration, Pen (0.12) [7] | Rescue concentration, Tri (8) [7] | Rescue concentration, Van (2) [7]
64 µg/mL: Rescue concentration, Gen (4) [7]
4 µg/mL: Rescue concentration, K. pneumoniae Ciprofloxacin (1 μg/mL) (K. pneumoniae) | Rescue concentration, K. pneumoniae Imipenem (1 μg/mL) (K. pneumoniae)
0.5 µg/mL: Rescue concentration, MRSA Amoxicillin (2 μg/mL) (MRSA)

Oc1ccc(C(c2c[nH]c3cnccc23)c2c[nH]c3cnccc23)cc1 [SP-6azaBIM 136, 4-(bis(1H-pyrrolo[2,3-c]pyridin-3-yl)methyl)phenol]
32 µg/mL: Rescue concentration, Chl (8) [6]
< 1020 µg/mL: MIC [1] | MIC [2] | MIC [3] | MIC [4] | MIC [5]
128 µg/mL: Rescue concentration, Van (2) [7]
16 µg/mL: Rescue concentration, Amp (8) [6] | Rescue concentration, Azi (16) [6] | Rescue concentration, Ceph (8) [6] | Rescue concentration, Col (8) [6]
8 µg/mL: Rescue concentration, Gen (4) [6] | Rescue concentration, MRSA Amoxicillin (2 μg/mL) (MRSA)
4 µg/mL: Rescue concentration, Dox (4) [6] | Rescue concentration, Imi (1) [6] | Rescue concentration, Tet (4) [6]
>128 µg/mL: Rescue concentration, Azi (2) [7] | Rescue concentration, Gen (4) [7] | Rescue concentration, Pen (0.12) [7] | Rescue concentration, Tri (8) [7]
<256 µg/mL: Rescue concentration, K. pneumoniae Ciprofloxacin (1 μg/mL) (K. pneumoniae) | Rescue concentration, K. pneumoniae Imipenem (1 μg/mL) (K. pneumoniae)

Brc1ccc(C(c2c[nH]c3ncccc23)c2c[nH]c3ncccc23)cc1 [SP-7azaBIM 126, 3,3′-((4-bromophenyl)methylene)bis(1H-pyrrolo[2,3-b]pyridine)]
128 µg/mL: Rescue concentration, Amp (8) [6]
>128 µg/mL: Rescue concentration, Azi (16) [6] | Rescue concentration, Ceph (8) [6] | Rescue concentration, Chl (8) [6] | Rescue concentration, Col (8) [6] | Rescue concentration, Dox (4) [6] | Rescue concentration, Gen (4) [6] | Rescue concentration, Imi (1) [6] | Rescue concentration, Tet (4) [6] | Rescue concentration, Azi (2) [7] | Rescue concentration, Gen (4) [7] | Rescue concentration, Pen (0.12) [7] | Rescue concentration, Tri (8) [7] | Rescue concentration, Van (2) [7]

Oc1ccc(C(c2c[nH]c3ncccc23)c2c[nH]c3ncccc23)cc1 [SP-7azaBIM 135, 4-(bis(1H-pyrrolo[2,3-b]pyridin-3-yl)methyl)phenol]
64 µg/mL: Rescue concentration, Amp (8) [6] | Rescue concentration, Col (8) [6]
32 µg/mL: Rescue concentration, Imi (1) [6]
>128 µg/mL: Rescue concentration, Azi (16) [6] | Rescue concentration, Ceph (8) [6] | Rescue concentration, Chl (8) [6] | Rescue concentration, Dox (4) [6] | Rescue concentration, Gen (4) [6] | Rescue concentration, Tet (4) [6] | Rescue concentration, Azi (2) [7] | Rescue concentration, Gen (4) [7] | Rescue concentration, Pen (0.12) [7] | Rescue concentration, Tri (8) [7] | Rescue concentration, Van (2) [7]

Source: patent publication US20230382926A1, “COMPOUNDS AND USES THEREOF” (The University of The West Indies, priority 2022, published 2023)
